Patent US10189796B2, “[4-(1,3,3-trimethyl-2-oxo-3,4-dihydro-1H-quinoxalin-7-yl)phenoxy]ethyloxy compound or salt thereof” (SANTEN PHARMACEUTICAL CO., LTD., priority 2015, dated 2019)
Where a name gives a salt, the structure may show the parent alone.

Columns and labels:
[1] = test system: IL-6 production in human corneal epithelium cell line (HCE-T); experiment: IL-6 production inhibitory action evaluation test (LPS stimulation, HTRF); format: cell-based; conditions: 4 hours; for Emax: 100 μM test compound solution 10 μL/well, DEX treated group = 100, read-out: IL-6 production inhibitory ratio (% DEX); for IC50: IL-6 production inhibition
Procedure: To evaluate the action of the present compounds as a GR agonist, IL-6 production inhibitory action in human corneal epithelial cell line after LPS stimulation was examined The IL-6 production was measured by using the HTRF method (Cat No. 62IL6PEB manufactured by Cisbio Bioassays, Inc.) according to the attached protocol. The specific method is described below.
LPS solution: After dissolving LPS in PBS(−), the resulting solution was diluted with a culture solution, whereby an LPS solution with a 1 μg/mL concentration was prepared.
After dissolving the test compound in dimethylsulfoxide, the solution was diluted with a 10% FBS-DMEM/Ham's F12 medium, whereby a 100 μM of the test compound solution was prepared. […] In addition, DEX was similarly dissolved, whereby a 100 μM concentration of the DEX solution was prepared, and an IL-6 production inhibitory ratio of DEX was measured, and used for calculation of Efficacy (% DEX).
Used cells: human corneal epithelium cell line (HCE-T) (RIKEN, Institute of Physical and Chemical Research)
The cells continued to subculture according to this method were used for the test. (Test Method and Measurement Method) • 1) The subcultured HCE-T was recovered and the cells were seeded at 2.0×10^4 cells/0.1 mL/well in a 96-well flat bottom culture plate. • 2) After culturing overnight, medium the medium was removed and each 80 μL/well of 10%
FBS-DMEM/Ham's F12 medium was added. • 3) Test compound solution was added with each 10 μL/well. • 4) LPS solution was added with each 10 μL/well. • 5) The sample to which 1% dimethylsulfoxide-containing 10% FBS-DMEM/Ham's F12 medium was added with each 10 μL/well in place of each test compound solution, and 10% FBS-DMEM/Ham's F12 medium was added in place of the LPS solution was made a negative control. • 6) The sample in which 1% dimethylsulfoxide-containing 10% FBS-DMEM/Ham's F12 medium was added with each 10 μL/well in place of each test compound solution was made a positive control. • 7) After completion of 4 hours cultivation, the supernatant was recovered and the amount of IL-6 released in the supernatant was measured by using an HTRF human IL-6 Kit. • 8) The IL-6 production inhibitory ratio was calculated according to the following calculation formula. (Calculation of IL-6 Production Inhibitory Ratio)
The IL-6 production inhibitory ratio (%) was calculated by the following formula. IL-6 production inhibitory ratio (%)=100×{1−(IL-6 produced amount of each test compound solution−average value of IL-6 produced amount of negative control group)/(average value of IL-6 produced amount of positive control group−average value of IL-6 produced amount of negative control group)}(%)
Further, the IL-6 production inhibitory ratio (Efficacy (% DEX)) when the DEX treated group was made 100 was calculated. Efficacy (% DEX)=100×{(average value of IL-6 production inhibitory ratio of each test compound solution)/(average value of IL-6 production inhibitory ratio of DEX treated group)}(%)
In addition, IC50 was calculated according to a conventional method. IDBS XLfit4 was used for the calculation.

Recombinant human GR = Recombinant human GR (Homo sapiens (Human), UniProt P04150); experiment: GR competitive binding assay by fluorescence polarization; conditions: 20 μM test compound solution, 10 μL/well; 2 hours; DEX positive control; read-out: GR binding rate (%)
Sequence of Recombinant human GR (P04150 whole entry): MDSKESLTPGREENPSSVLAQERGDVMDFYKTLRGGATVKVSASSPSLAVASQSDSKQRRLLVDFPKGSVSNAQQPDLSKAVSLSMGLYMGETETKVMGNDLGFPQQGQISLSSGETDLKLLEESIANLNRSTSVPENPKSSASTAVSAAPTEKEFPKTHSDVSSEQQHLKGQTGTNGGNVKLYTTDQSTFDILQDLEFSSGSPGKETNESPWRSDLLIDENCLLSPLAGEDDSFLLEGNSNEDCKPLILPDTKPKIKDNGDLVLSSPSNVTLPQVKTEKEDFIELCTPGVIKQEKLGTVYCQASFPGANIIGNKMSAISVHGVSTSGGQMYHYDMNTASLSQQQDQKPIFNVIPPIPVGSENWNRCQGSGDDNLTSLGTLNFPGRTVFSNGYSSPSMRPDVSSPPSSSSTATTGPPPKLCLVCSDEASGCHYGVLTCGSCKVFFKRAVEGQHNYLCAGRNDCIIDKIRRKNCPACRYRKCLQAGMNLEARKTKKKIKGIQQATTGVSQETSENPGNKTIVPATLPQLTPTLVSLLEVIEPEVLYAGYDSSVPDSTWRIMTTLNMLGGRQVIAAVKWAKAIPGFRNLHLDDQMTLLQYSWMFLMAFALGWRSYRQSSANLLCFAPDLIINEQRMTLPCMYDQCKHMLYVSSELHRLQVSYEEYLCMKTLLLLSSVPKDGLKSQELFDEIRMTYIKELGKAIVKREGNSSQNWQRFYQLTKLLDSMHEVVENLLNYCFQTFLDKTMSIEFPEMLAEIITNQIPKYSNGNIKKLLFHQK
Procedure: In order to evaluate a binding activity of the present compound to GR, a GR receptor competitor assay was carried out by a fluorescence polarization method. In the assay, a GR competitive binding assay kit (manufactured by Invitrogen, cat No. P2816) was used for the assay, and a procedure was carried out according to the protocol attached to the kit. Hereinafter, the specific method will be described.
GR screening buffer: A buffer containing 10 mM of potassium phosphate (pH 7.4), 20 mM of sodium molybdate (Na2MoO4), 0.1 mM of ethylene diamine tetraacetic acid (EDTA), 5 mM of dithiothreitol (DTT), 0.1 mM of stabilizing peptide and 2% of dimethylsulfoxide was prepared.
4×GS1 solution: Fluormone™ GS1, which is a fluorescent glucocorticoid ligand, was diluted with GR screening buffer, whereby a 4 nM solution was prepared.
4×GR solution: Recombinant human GR was diluted with GR screening buffer, whereby a 16 nM solution was prepared.
After a test compound was dissolved in dimethylsulfoxide, the resulting solution was diluted with GR screening buffer, whereby a 20 μM test compound solution was prepared. In addition, DEX was similarly dissolved, whereby a DEX solution with a […] concentration was prepared, and the solution was diluted with GR screening buffer, whereby a 2 mM DEX solution was prepared. DEX was used as positive control.
• 1) The test compound solution was added in an amount of 10 μL into each well of a 384-well plate. • 2) 4×GS1 solution and 4×GR solution were added in an amount of 5 μL into each well, respectively. • 3) GR screening buffer was added in an amount of 10 μL/well into each well in place of the test compound solution, which was made a negative control. • 4) A 2 mM of DEX was added in an amount of 10 μL/well into each well in place of the test compound solution, which was made a positive control. • 5) The plate was incubated in a dark place at room temperature for 2 hours, and fluorescence polarization of each well was measured. (Calculation Equation of GR Binding Ratio)
A GR binding ratio (%) was calculated from the following equation. GR binding ratio (%)=100×{1−(fluorescence polarization of test compound solution−average value of fluorescence polarization of positive control solution)/(average value of fluorescence polarization of negative control solution−average value of fluorescence polarization of positive control solution)}

SMILES	Emax [1]	inhibition at 10 µM (Recombinant human GR)	IC50 [1]	inhibition at 20 µM (stock) (Recombinant human GR)
COc1cc(OC[C@H](C)OC(=O)CN)ccc1-c1ccc2c(c1COc1cc(F)ccc1C)N(C)C(=O)C(C)(C)N2 [Compound 11-4, (S)-7-[4-(2-aminoacetoxypropyl)oxy-2-methoxyphenyl]-8-(5-fluoro-2-methylphenoxy-methyl)-1,3,3-trimethyl-3,4-dihydro-1H-quinoxalin-2-one hydrochloride]	94%			
COc1cc(OCCO)ccc1-c1ccc2c(c1COc1cc(F)ccc1C)N(C)C(=O)C(C)(C)N2 [Compound 3-1, 8-(5-fluoro-2-methylphenoxymethyl)-7-[4-(2-hydroxyethyl)oxy-2-methoxyphenyl]-1,3,3-trimethyl-3,4-dihydro-1H-quinoxalin-2-one]		> 99%		
CCOC(=O)CC(O)COc1ccc(-c2ccc3c(c2COc2cc(F)ccc2C)N(C)C(=O)C(C)(C)N3)c(OC)c1 (centres unmarked) [Compound 7-1, 7-[4-(3-ethoxycarbonyl-2-hydroxypropyl)oxy-2-methoxyphenyl]-8-(5-fluoro-2-methylphenoxymethyl)-1,3,3-trimethyl-3,4-dihydro-1H-quinoxalin-2-one]		> 99%		
COc1cc(OC[C@H](O)CO)ccc1-c1ccc2c(c1COc1cc(F)ccc1C)N(C)C(=O)C(C)(C)N2 [Compound 4-3, (R)-7-[4-(2,3-dihydroxypropyl)oxy-2-methoxyphenyl]-8-(5-fluoro-2-methylphenoxy-methyl)-1,3,3-trimethyl-3,4-dihydro-1H-quinoxalin-2-one]		88%		
COc1cc(OC[C@H](O)CC#N)ccc1-c1ccc2c(c1COc1cc(F)ccc1C)N(C)C(=O)C(C)(C)N2 [Compound 5-1, (R)-7-[4-(3-cyano-2-hydroxypropyl)oxy-2-methoxyphenyl]-8-(5-fluoro-2-methyl-phenoxymethyl)-1,3,3-trimethyl-3,4-dihydro-1H-quinoxalin-2-one]	98%	88%	14 nM	
COc1cc(OC[C@H](C)OC(=O)[C@@H](N)C(C)C)ccc1-c1ccc2c(c1COc1cc(F)ccc1C)N(C)C(=O)C(C)(C)N2 [Compound 11-5, 7-[4-[(2S)-[(2S)-amino-3-methylbutanoyloxy]propyl]oxy-2-methoxyphenyl]-8-(5-fluoro-2-methylphenoxymethyl)-1,3,3-trimethyl-3,4-dihydro-1H-quinoxalin-2-one hydrochloride]	94%	> 99%		
COc1cc(OCC(O)CO)ccc1-c1ccc2c(c1COc1cc(F)ccc1C)N(C)C(=O)C(C)(C)N2 (centres unmarked) [Compound 4-1, 7-[4-(2,3-dihydroxypropyl)oxy-2-methoxyphenyl]-8-(5-fluoro-2-methylphenoxymethyl)-1,3,3-trimethyl-3,4-dihydro-1H-quinoxalin-2-one]		> 99%		
COc1cc(OCC(O)CC(=O)N2CCCCC2)ccc1-c1ccc2c(c1COc1cc(F)ccc1C)N(C)C(=O)C(C)(C)N2 (centres unmarked) [Compound 10-3, 8-(5-fluoro-2-methylphenoxymethyl)-7-[4-[3-(N-piperidino)carbonyl-2-hydroxy-propyl]oxy-2-methoxyphenyl]-1,3,3-trimethyl-3,4-dihydro-1H-quinoxalin-2-one]		> 99%		
COc1cc(OCC(O)CC(=O)OC(C)(C)C)ccc1-c1ccc2c(c1COc1cc(F)ccc1C)N(C)C(=O)C(C)(C)N2 (centres unmarked) [Compound 7-2, 7-[4-(3-t-butoxycarbonyl-2-hydroxypropyl)oxy-2-methoxyphenyl]-8-(5-fluoro-2-methylphenoxymethyl)-1,3,3-trimethyl-3,4-dihydro-1H-quinoxalin-2-one]	> 99%	> 99%	83 nM	
COc1cc(OC[C@@H](O)CO)ccc1-c1ccc2c(c1COc1cc(F)ccc1C)N(C)C(=O)C(C)(C)N2 [Compound 4-2, (S)-7-[4-(2,3-dihydroxypropyl)oxy-2-methoxyphenyl]-8-(5-fluoro-2-methylphenoxy-methyl)-1,3,3-trimethyl-3,4-dihydro-1H-quinoxalin-2-one]				> 99%
CCOC(=O)C(O)COc1ccc(-c2ccc3c(c2COc2cc(F)ccc2C)N(C)C(=O)C(C)(C)N3)c(OC)c1 (stereo in doubt) [Compound 1-6, (R)-7-[4-(2-ethoxycarbonyl-2-hydroxyethyl)oxy-2-methoxyphenyl]-8-(5-fluoro-2-methylphenoxymethyl)-1,3,3-trimethyl-3,4-dihydro-1H-quinoxalin-2-one]	89%	87%	< 1 nM	
COc1cc(OCC(O)CC(=O)O)ccc1-c1ccc2c(c1COc1cc(F)ccc1C)N(C)C(=O)C(C)(C)N2 (centres unmarked) [Compound 9-1, 7-[4-(3-Carboxy-2-hydroxypropyl)oxy-2-methoxyphenyl]-8-(5-fluoro-2-methylphenoxymethyl)-1,3,3-trimethyl-3,4-dihydro-1H-quinoxalin-2-one]		> 99%		
COc1cc(OCC(O)CC(=O)N2CCCC2)ccc1-c1ccc2c(c1COc1cc(F)ccc1C)N(C)C(=O)C(C)(C)N2 (centres unmarked) [Compound 10-1, 8-(5-fluoro-2-methylphenoxymethyl)-7-[4-[3-(N-pyrrolidylcarbonyl)-2-hydroxypropyl]oxy-2-methoxyphenyl]-1,3,3-trimethyl-3,4-dihydro-1H-quinoxalin-2-one]		94%		
